Source: patent US5962418A, “Factor VII-derived peptides” (Nycomed Imaging A/S, priority 1993, dated 1999)
Where a SMILES comes first, the peptide text is derived from it. Bridges are numbered along the chain shown (N, C = ends).

What was measured:
[1] = biological target: Factor VII and tissue factor (Homo sapiens, UniProt P13726); settings: Corvas Inc., Table 1 of WO90/03390; cited from earlier work
[2] = biological target: binding of Factor VII to tissue factor (Homo sapiens, UniProt P13726); assay: Inhibition of FVII/TF binding or FVII activity, assay not specified (summary statements)
FVIIa/TF = biological target: T1, FVIIa/TF (Homo sapiens, UniProt P13726); assay: Kinetics of inhibition of FX activation (assay of FVIIa/TF activity); assay type: biochemical; settings: varying FVII-5 and Factor X concentrations
T1 construct: purchased Behringwerk (TF, Thromborel); Diagnostica Stago (FVIIa)
Procedure: Peptides (0-1 mM) were preincubated in 0.1 M Tris.HCl pH 7.2 with tissue factor (Thromborel®, Behringwerk, Marburg, Germany; 0.2% final concentration) at 22° C. for 30 minutes, then Factor X (American Diagnostica Inc., Greenwich, Conn. USA; 70 nM was added followed by FVIIa (Diagnostica Stago, Asnieres, France; 8 pM and CaCl2 (5 mM). Incubations were continued for 30 minutes and quenched with EDTA (50 mM) which removes essential Ca^2+. The FXa produced was quantified by monitoring hydrolysis of the chromegenic FX substrate S-2222 (Chromogenix,Molndal, Sweden).
The kinetics of inhibition of FX activation by FVII-5 was investigated. Varying concentrations of FVII-5 were incubated with different concentrations of Factor X in the presence or absence of TF and FVIIa.

[3] = biological target: T2, purified human FVIIa bound to recombinant human TF (apoTF/FVIIa) (Homo sapiens, UniProt P13726); assay: Assay of apoTF/FVIIa catalytic (amidolytic) activity; assay type: biochemical; settings: for IC50: read-out: IC50, Amidolytic apo TF Assay
T2 construct: purchased American Diagnostica (TF); Enzyme Research Laboratories (FVIIa) 4500 (TF); HFVlla (FVIIa)
Procedure: Assay of apoTF/FVIIa Catalytic Activity
This […] assay was used to measure directly the amidolytic (catalytic) activity of purified human FVIla when bound to recombinant human TF in the absence of phospholipid.
Reactions were performed in microtitre plate wells, using a final incubation volume of 200 uL. Test compounds, dissolved in water, (final concentration, 0-1 mM) were preincubated with recombinant human tissue factor (American Diagnostica, cat# 4500; 5 nM) and CaCl2 (5 mM) in Tris buffer (100 mM), pH 7.2, containing NaCl (150 mM) and BSA (1 mg/mL) at ambient temperature for 30 minutes. Factor Vlla (Enzyme Research Laboratories, cat# HFVlla; 5 nM) was added and the incubations continued for 60 minutes. Chromogenic substrate, S2288 (Chromogenix cat# 820852; 0.5 mM) was then added and the enzymatic activity of the tissue factor apoprotein/factor VII complex (apoTF/FVlla) was monitored at 405 nm.

[4] = biological target: FVII binding to immobilized rTF (Homo sapiens, UniProt P13726); assay: ELISA assay of inhibition of FVII binding to immobilized rTF; settings: for inhibition at 500 µM: peptide 0.5 mM
Procedure: FIG. 13 ELISA assay of the inhibition of FVII binding to immobilized rTF produced by synthetic FVII peptides (all at 0.5 mM). For peptide sequences see the table of peptides below (page 19). C and L denote the cyclic and linear forms respectively of peptides with terminal cysteines.
The inhibition results shown in FIG. 13 indicate that in addition to sequences from the "hinge" region (i.e. residues 41-48 between the GLA domain and the first EGF domain, […]) and from the first EGF domain itself (i.e. residues 50-61; Clarke et al), there exist additional sequences in the second EGF domain (especially 95-104) which are inhibitors when presented as peptides in this binding assay.

[5] = biological target: T3, tissue factor (TF) expressed on the surface of living cells (Homo sapiens, UniProt P13726); assay: Assay of cell-surface TF initiated coagulation of plasma (microcarrier coagulation assay); assay type: cell-based; settings: peptide 0.5 mM
T3 construct: induced by tissue factor (TF) expressed on the surface of living cells; endogenous in cells; host or cells: living cells on Cytodex-3 microcarriers (e.g. human HT-1080 or ECV-304)
Procedure: FIGS. 9A-9C Principle of the microcarrier assay of cell-surface mediated coagulation of blood plasma. Living cells (e.g., human HT-1080 fibrosarcoma; ATCC CRL 121) adherent on the surface of microcarriers are mixed with a calcium-containing buffer and plasma in the incubation well of a Thrombotrack™ electromagnetic coagulometer (Nycomed). The clotting time is measured by the increase in resistance to movement of a magnetic ball produced by the formation of fibrin fibres. HT-1080 cells adherent on Cytodex-3 microcarriers are shown in FIG. 9C as an example of the types of cells expressing TF which may be used.
Assay of Cell-surface TF Initiated Coagulation of Plasma
A novel assay system has been devised to measure the coagulation of blood plasma (i.e. clotting time) induced by tissue factor (TF) expressed on the surface of living cells. This assay makes use of human or animal cells adherent on the surface of microcarriers (see FIG. 9), which enables reproducible presentation of known amounts of TF activity in the stirred measuring well of an electromagnetic coagulometer. The cells used may be normal or transformed, and representing phenotypes such as monocytes, endothelium, fibroblasts etc (see FIG. 10).
This novel assay has been particularly developed and characterised so as to be highly useful in determining the effect of synthetic peptides and peptidomimetic compounds on the extrinsic pathway of coagulation, using living cells in a plasma milieu. Results for the inhibitory effect of synthetic peptides based upon the amino acid sequence of human FVII are disclosed.
The microcarrier cell preparation is made as follows. Cells obtained from primary isolates or subcultures of transformed lines (see FIG. 10) are suspended in a small volume of serum-containing medium and mixed with microcarriers (Cytodex-3, Pharmacia) in a ratio of about 50-100 cells/microcarrier. The cells are usually adhere nt on the microcarriers within 2 hours, and can then be transferred to normal roller bottles with a larger volume of culture medium. Uniform coverage of microcarriers with about 20-60 cells can be obtained directly with transformed cells, when large cell numbers are available, or after 2 days growth when primary cultures (e.g. umbilical vein endothelial cells) are used. […]
To assay the extrinsic coagulation activity, the microcarrier cell preparations are first washed with a calcium-free buffer to remove bound serum factors. A calcium-containing buffer and plasma are then added and the clotting time is determined automatically in an electromagnetic coagulometer. […]

[6] = system: coagulation factors of the intrinsic and common pathways of coagulation; assay: Coagulation assay initiated by contact activation (Cephotest); settings: all coagulation factors other than TF/FVII
Text: The effect of the peptides observed in the coagulation assay could conceivably have been due to effects on another one or more of the several components contributing to the coagulation cascade. This possibility was therefore tested by adding the peptides to coagulation assays which were initiated by contact activation (Cephotest™, Nycomed), and therefore involved coagulation factors of the intrinsic and common pathways of coagulation, i.e. all coagulation factors other than TF/FVII. […] Thus evidence was obtained that the effects observed in the TF/FVII initiated coagulation assay above were in fact due to a direct effect on the TF/FVII complex.

[7] = biological target: T4, native TF/FVIIa complex on the surface of HT-1080 cells (Homo sapiens, UniProt P13726); assay: Assay of HT1080 cell surface TF/FVIIa mediated activation of FX (amidolytic microcarrier assay); assay type: cell-based
T4 construct: native TF/FVIIa complex on the surface of living cells expressing TF in their cell membrane; endogenous in cells; host or cells: HT-1080 human fibrosarcoma cells on Cytodex-3 microcarriers
T4 sequence (P13726 33-295, one chain of several): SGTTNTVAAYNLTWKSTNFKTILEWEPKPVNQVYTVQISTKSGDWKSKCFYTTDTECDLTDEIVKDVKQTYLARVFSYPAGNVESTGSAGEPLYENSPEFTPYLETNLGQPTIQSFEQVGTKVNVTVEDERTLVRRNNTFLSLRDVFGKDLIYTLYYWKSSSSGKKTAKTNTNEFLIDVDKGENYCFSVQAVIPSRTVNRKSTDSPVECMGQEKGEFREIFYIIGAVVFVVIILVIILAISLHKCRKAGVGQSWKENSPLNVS

T2 sequence (P13726 33-295): as the sequence (P13726 33-295, one chain of several) above
T3 sequence (P13726 33-295): as the sequence (P13726 33-295, one chain of several) above
binding of Factor VII to tissue factor, sequence (P13726 33-295): as the sequence (P13726 33-295, one chain of several) above
Factor VII and tissue factor, sequence (P13726 33-295, species assumed): as the sequence (P13726 33-295, one chain of several) above
FVII binding to immobilized rTF, sequence (P13726 33-295): as the sequence (P13726 33-295, one chain of several) above
T1 sequence (P13726 33-295): as the sequence (P13726 33-295, one chain of several) above

Row | Compound | Inhibition of activation of Factor X by Factor VII and tissue factor as reported in WO90/03390 [1] | Inhibitory activity, in words [2] | inhibition at 500 µM [5] | Effect on contact-activated coagulation (specificity) [6] | other results
1 | SDHTGTKRSC [reference compound] | active | only moderate activity |  |  | Inhibitor of the binding of Factor VII to tissue factor, in words [2]: rather poor inhibitor
2 | CC(C)[C@@H]1NC(=O)[C@@H](N)CSSC[C@@H](C(=O)O)NC(=O)[C@H](Cc2ccc(O)cc2)NC(=O)[C@H](CCC(N)=O)NC(=O)[C@H](CCC(=O)O)NC(=O)[C@H](CS)NC(=O)CNC(=O)CNC(=O)[C@H](CC(N)=O)NC(=O)[C@H](CCC(=O)O)NC(=O)[C@H](CC(N)=O)NC1=O [91-102(C)] (H-CVNENGGCEQYC-OH; disulfide 1-12 (inferred)) |  |  |  |  | Mode of inhibition of Factor X activation (FVIIa/TF): noncompetitive inhibition
3 | CC(C)[C@H](NC(=O)[C@@H](N)CS)C(=O)N[C@@H](CC(N)=O)C(=O)N[C@@H](CCC(=O)O)C(=O)N[C@@H](CC(N)=O)C(=O)NCC(=O)NCC(=O)N[C@@H](CS)C(=O)N[C@@H](CCC(=O)O)C(=O)N[C@@H](CCC(N)=O)C(=O)N[C@@H](Cc1ccc(O)cc1)C(=O)N[C@@H](CS)C(=O)O [91-102(L)] (H-CVNENGGCEQYC-OH; N-terminus and C-terminus assumed) |  |  | 14% |  | IC50 [3]: 1.14 mM; IC50 [4]: 0.06 mM
4 | NGGCEQYCSD [95-104, FVII residues 95 to 104] |  | most active inhibitor so far tested |  | inactive | Inhibition of FVII binding to rTF, in words ([4]; peptides at 0.5 mM (FIG. 13)): inhibitors
5 | Ac-SDHTGTKRS-NH2 [103-111] |  |  | 30% | inactive | IC50 [3]: 2.2 mM; IC50 ([7]; HT-1080 cells on microcarriers): 0.87 mM; inhibition at 500 µM [4]: 59%
6 | TAP: tick anticoagulant polypeptide; control inhibitor of FX (YNRLCIKPRDWIDECDSNEGGERAYFRNGKGGCDSFWICPEDHTGADYYSSYRDCFNACI; UniProt P17726 1-60, looked up) [reference compound] |  |  |  | strongly inhibitory | Inhibition of FXa amidolytic activity generated by HT-1080 cell-surface TF/FVIIa ([7]; HT-1080 cells): inhibition of activity
7 | CVNENGGCEQYC [91-102, FVII residues 91-102] | zero inhibitory acticity | particularly active |  | inactive | 
8 | CC(C)C[C@@H]1NC(=O)[C@H](CC(C)C)NC(=O)[C@H](CO)NC(=O)[C@H](Cc2ccc(O)cc2)NC(=O)CNC(=O)[C@H](CCC(=O)O)NC(=O)[C@H](Cc2c[nH]cn2)NC(=O)[C@@H](N)CSSC[C@@H](C(=O)O)NC(=O)[C@H](CO)NC(=O)[C@H](C(C)C)NC(=O)CNC(=O)[C@H](CC(=O)O)NC(=O)[C@H](C)NC1=O [114-127(C)] (H-CHEGYSLLADGVSC-OH; disulfide 1-14) |  |  | 44% |  | inhibition at 500 µM ([3]; peptide 0.5 mM, did not reach near-quantitative inhibition at 1 mM, read-out: % inhibition at 0.5 mM, Amidolytic apo TF Assay): 21%; inhibition at 500 µM [4]: 77%
9 | Hirudin [reference compound] |  |  |  | strongly inhibitory | 
10 | CLPAFEGRNC [72-81] | zero inhibitory acticity |  |  |  | Synergistic enhancement of the inhibitory action of peptides of the sequence 91 to 104 ([2]; in combination): acted synergistically
11 | CHEGYSLLADGVSC [114-127, FVII residues 114-127] | zero inhibitory acticity | relatively active |  |  | 
12 | CC(C)C[C@@H]1NC(=O)[C@@H](N)CSSC[C@@H](C(=O)O)NC(=O)[C@H](CC(N)=O)NC(=O)[C@H](CCCNC(=N)N)NC(=O)CNC(=O)[C@H](CCC(=O)O)NC(=O)[C@H](Cc2ccccc2)NC(=O)[C@H](C)NC(=O)[C@@H]2CCCN2C1=O [72-81(C)] |  |  | 22% |  | inhibition at 500 µM [4]: 89%
